# Data as given in PubChem BioAssay (NCI).
#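 How tested: cells in 96-well plates exposed to compound for 48 hours at five concentrations. Abbreviation: GI50, concentration required for 50% inhibition of growth. TGI denotes the concentration required for complete inhibition of growth.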
# Assays:
# Experiment in all cases: growth of human tumour cells (NCI), 48 h
# MDA-MB-468 breast = system: MDA-MB-468 breast
# HCT-116 colon = system: HCT-116 colon
# KM12 colon = system: KM12 colon
# HS 578T breast = system: HS 578T breast
# HOP-62 NSCLC = system: HOP-62 NSCLC
# PC-3 prostate = system: PC-3 prostate
# MCF7 breast = system: MCF7 breast
# 786-0 renal = system: 786-0 renal
# CAKI-1 renal = system: CAKI-1 renal
# MOLT-4 leukemia = system: MOLT-4 leukemia
# SK-OV-3 ovarian = system: SK-OV-3 ovarian
# TK-10 renal = system: TK-10 renal
# LOX IMVI melanoma = system: LOX IMVI melanoma
# OVCAR-4 ovarian = system: OVCAR-4 ovarian
# MDA-MB-231 breast = system: MDA-MB-231 breast
# SNB-19 CNS = system: SNB-19 CNS
# SN12C renal = system: SN12C renal
# SF-295 CNS = system: SF-295 CNS
# OVCAR-3 ovarian = system: OVCAR-3 ovarian
# MDA-MB-435 = system: MDA-MB-435
# A549 NSCLC = system: A549 NSCLC
# HCT-15 colon = system: HCT-15 colon
# DU-145 prostate = system: DU-145 prostate
# U251 CNS = system: U251 CNS
# CCRF-CEM leukemia = system: CCRF-CEM leukemia
# HL-60(TB) leukemia = system: HL-60(TB) leukemia
# HCC-2998 colon = system: HCC-2998 colon
# IGROV1 ovarian = system: IGROV1 ovarian
# RPMI-8226 leukemia = system: RPMI-8226 leukemia
# HOP-92 NSCLC = system: HOP-92 NSCLC
# OVCAR-8 ovarian = system: OVCAR-8 ovarian
# BT-549 breast = system: BT-549 breast
# SK-MEL-28 melanoma = system: SK-MEL-28 melanoma
# T-47D breast = system: T-47D breast
# SW-620 colon = system: SW-620 colon
# OVCAR-5 ovarian = system: OVCAR-5 ovarian
# NCI-H226 lung = system: NCI-H226 lung
# SNB-75 CNS = system: SNB-75 CNS
# NCI-H23 lung = system: NCI-H23 lung
# EKVX NSCLC = system: EKVX NSCLC
# SR leukemia = system: SR leukemia
# RXF 393 renal = system: RXF 393 renal
# SF-539 CNS = system: SF-539 CNS
# NCI-H522 lung = system: NCI-H522 lung
# SF-268 CNS = system: SF-268 CNS
# K-562 leukemia = system: K-562 leukemia
# MALME-3M melanoma = system: MALME-3M melanoma
# SK-MEL-2 melanoma = system: SK-MEL-2 melanoma
# HT29 colon = system: HT29 colon
# COLO 205 colon = system: COLO 205 colon
# M14 melanoma = system: M14 melanoma
# NCI-H460 lung = system: NCI-H460 lung
# UACC-257 melanoma = system: UACC-257 melanoma
# ACHN renal = system: ACHN renal
# A498 renal = system: A498 renal
# UACC-62 melanoma = system: UACC-62 melanoma
# SK-MEL-5 melanoma = system: SK-MEL-5 melanoma
# UO-31 renal = system: UO-31 renal
compound,measurement,setting,value
O=C1NC(=NC2CCCCCC2)N/C1=C\c1ccc2ncoc2c1,GI50,MDA-MB-468 breast,2.44 µM
same,TGI,MDA-MB-468 breast,12.6 µM
same,GI50,HCT-116 colon,1.92 µM
same,TGI,HCT-116 colon,10.9 µM
same,GI50,KM12 colon,3.83 µM
same,TGI,KM12 colon,19.1 µM
same,GI50,HS 578T breast,2.87 µM
same,TGI,HS 578T breast,26.5 µM
same,GI50,HOP-62 NSCLC,3.3 µM
same,TGI,HOP-62 NSCLC,45.6 µM
same,GI50,PC-3 prostate,8.53 µM
same,TGI,PC-3 prostate,60.6 µM
same,GI50,MCF7 breast,3.58 µM
same,TGI,MCF7 breast,30.2 µM
same,GI50,786-0 renal,5.02 µM
same,TGI,786-0 renal,47 µM
same,GI50,CAKI-1 renal,2.61 µM
same,TGI,CAKI-1 renal,12.9 µM
same,GI50,MOLT-4 leukemia,3.51 µM
same,TGI,MOLT-4 leukemia,22 µM
same,GI50,SK-OV-3 ovarian,2.71 µM
same,TGI,SK-OV-3 ovarian,62.9 µM
same,GI50,TK-10 renal,3.86 µM
same,TGI,TK-10 renal,> 100 µM
same,GI50,LOX IMVI melanoma,4.33 µM
same,TGI,LOX IMVI melanoma,20.9 µM
same,GI50,OVCAR-4 ovarian,12.4 µM
same,TGI,OVCAR-4 ovarian,53.4 µM
same,GI50,MDA-MB-231 breast,11.3 µM
same,TGI,MDA-MB-231 breast,58.4 µM
same,GI50,SNB-19 CNS,2.43 µM
same,TGI,SNB-19 CNS,44.6 µM
same,GI50,SN12C renal,2.89 µM
same,TGI,SN12C renal,18.1 µM
same,GI50,SF-295 CNS,7.52 µM
same,TGI,SF-295 CNS,> 100 µM
same,GI50,OVCAR-3 ovarian,2.13 µM
same,TGI,OVCAR-3 ovarian,9.17 µM
same,GI50,MDA-MB-435,6.27 µM
same,TGI,MDA-MB-435,21.4 µM
same,GI50,A549 NSCLC,3.01 µM
same,TGI,A549 NSCLC,32.1 µM
same,GI50,HCT-15 colon,3.41 µM
same,TGI,HCT-15 colon,26.4 µM
same,GI50,DU-145 prostate,4.02 µM
same,TGI,DU-145 prostate,17.1 µM
same,GI50,U251 CNS,3.54 µM
same,TGI,U251 CNS,68.9 µM
same,GI50,CCRF-CEM leukemia,2.87 µM
same,TGI,CCRF-CEM leukemia,16.2 µM
same,GI50,HL-60(TB) leukemia,3.69 µM
same,TGI,HL-60(TB) leukemia,19.3 µM
same,GI50,HCC-2998 colon,12.3 µM
same,TGI,HCC-2998 colon,27.6 µM
same,GI50,IGROV1 ovarian,4.35 µM
same,TGI,IGROV1 ovarian,34.1 µM
same,GI50,RPMI-8226 leukemia,5.22 µM
same,TGI,RPMI-8226 leukemia,31.7 µM
same,GI50,HOP-92 NSCLC,6.58 µM
same,TGI,HOP-92 NSCLC,58.6 µM
same,GI50,OVCAR-8 ovarian,3.55 µM
same,TGI,OVCAR-8 ovarian,18 µM
same,GI50,BT-549 breast,1.94 µM
same,TGI,BT-549 breast,12.3 µM
same,GI50,SK-MEL-28 melanoma,3.5 µM
same,TGI,SK-MEL-28 melanoma,14.1 µM
same,GI50,T-47D breast,2.87 µM
same,TGI,T-47D breast,63.2 µM
same,GI50,SW-620 colon,3.27 µM
same,TGI,SW-620 colon,18.9 µM
same,GI50,OVCAR-5 ovarian,4.33 µM
same,TGI,OVCAR-5 ovarian,68.4 µM
same,GI50,NCI-H226 lung,2.63 µM
same,TGI,NCI-H226 lung,> 100 µM
same,GI50,SNB-75 CNS,0.757 µM
same,TGI,SNB-75 CNS,12.3 µM
same,GI50,NCI-H23 lung,3.16 µM
same,TGI,NCI-H23 lung,18.7 µM
same,GI50,EKVX NSCLC,8.68 µM
same,TGI,EKVX NSCLC,49.4 µM
same,GI50,SR leukemia,1.97 µM
same,TGI,SR leukemia,8.09 µM
same,GI50,RXF 393 renal,2.02 µM
same,TGI,RXF 393 renal,5.32 µM
same,GI50,SF-539 CNS,1.01 µM
same,TGI,SF-539 CNS,5.75 µM
same,GI50,NCI-H522 lung,1.27 µM
same,TGI,NCI-H522 lung,15 µM
same,GI50,SF-268 CNS,5.61 µM
same,TGI,SF-268 CNS,38.8 µM
same,GI50,K-562 leukemia,4.97 µM
same,TGI,K-562 leukemia,37.2 µM
same,GI50,MALME-3M melanoma,10.5 µM
same,TGI,MALME-3M melanoma,24.4 µM
same,GI50,SK-MEL-2 melanoma,2.86 µM
same,TGI,SK-MEL-2 melanoma,9.46 µM
same,GI50,HT29 colon,9.36 µM
same,TGI,HT29 colon,37.8 µM
same,GI50,COLO 205 colon,3.14 µM
same,TGI,COLO 205 colon,14.2 µM
same,GI50,M14 melanoma,8.62 µM
same,TGI,M14 melanoma,25.2 µM
same,GI50,NCI-H460 lung,4.08 µM
same,TGI,NCI-H460 lung,15.6 µM
same,GI50,UACC-257 melanoma,5.95 µM
same,TGI,UACC-257 melanoma,23 µM
same,GI50,ACHN renal,2.68 µM
same,TGI,ACHN renal,10.1 µM
same,GI50,A498 renal,2.09 µM
same,TGI,A498 renal,8.84 µM
same,GI50,UACC-62 melanoma,2.74 µM
same,TGI,UACC-62 melanoma,12 µM
same,GI50,SK-MEL-5 melanoma,3.66 µM
same,TGI,SK-MEL-5 melanoma,14.8 µM
same,GI50,UO-31 renal,3.31 µM
same,TGI,UO-31 renal,9.46 µM
